Our source for the IC50 values is patent US11566028B2, “Bicyclic heterocycles as FGFR inhibitors” (Incyte Corporation, priority 2019, dated 2023).

Format in all cases: biochemical
Settings in all cases: pre-incubated for 4 hours

In assay [1] the target is wild-type un-phosphorylated FGFR3 protein (Homo sapiens (Human), UniProt P22607). Nature of the assay: FGFR Enzymatic Assay (FRET peptide phosphorylation), FGFR3.
In the next assay the target is FGFR1 (Homo sapiens (Human), UniProt P11362). As to the kind of experiment: FGFR Enzymatic Assay (FRET peptide phosphorylation), FGFR1.
Another assay has as its target FGFR2 (Homo sapiens (Human), UniProt P21802). As to the kind of experiment: FGFR Enzymatic Assay (FRET peptide phosphorylation), FGFR2.
For a further assay, the target named is FGFR4 (Homo sapiens (Human), UniProt P22455). As to the kind of experiment: FGFR Enzymatic Assay (FRET peptide phosphorylation), FGFR4.

Broadly, the IC50 is the concentration needed to halve the response being measured.

FGFR2, sequence (P21802 22-821): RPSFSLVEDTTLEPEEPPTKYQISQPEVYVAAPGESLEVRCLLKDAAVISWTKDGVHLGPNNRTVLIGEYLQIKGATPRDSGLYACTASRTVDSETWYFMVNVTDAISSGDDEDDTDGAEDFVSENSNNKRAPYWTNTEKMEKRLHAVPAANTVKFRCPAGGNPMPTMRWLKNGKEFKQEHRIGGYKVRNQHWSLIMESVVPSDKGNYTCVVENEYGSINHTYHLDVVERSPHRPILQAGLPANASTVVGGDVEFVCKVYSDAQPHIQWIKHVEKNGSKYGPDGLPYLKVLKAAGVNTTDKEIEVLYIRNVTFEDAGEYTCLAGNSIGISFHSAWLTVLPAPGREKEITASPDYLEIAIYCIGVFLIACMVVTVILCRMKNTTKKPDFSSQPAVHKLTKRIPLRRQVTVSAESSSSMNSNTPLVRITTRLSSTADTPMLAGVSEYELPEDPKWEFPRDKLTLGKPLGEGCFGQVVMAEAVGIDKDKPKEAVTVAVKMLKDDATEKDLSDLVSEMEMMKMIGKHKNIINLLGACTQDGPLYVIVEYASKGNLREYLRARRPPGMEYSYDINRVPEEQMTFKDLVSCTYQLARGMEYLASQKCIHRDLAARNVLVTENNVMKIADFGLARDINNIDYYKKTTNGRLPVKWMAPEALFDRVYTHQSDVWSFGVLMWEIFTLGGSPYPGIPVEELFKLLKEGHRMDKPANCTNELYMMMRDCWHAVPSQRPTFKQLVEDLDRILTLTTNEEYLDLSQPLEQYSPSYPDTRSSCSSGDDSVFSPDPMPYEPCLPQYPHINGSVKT
wild-type un-phosphorylated FGFR3 protein, sequence (P22607 23-806): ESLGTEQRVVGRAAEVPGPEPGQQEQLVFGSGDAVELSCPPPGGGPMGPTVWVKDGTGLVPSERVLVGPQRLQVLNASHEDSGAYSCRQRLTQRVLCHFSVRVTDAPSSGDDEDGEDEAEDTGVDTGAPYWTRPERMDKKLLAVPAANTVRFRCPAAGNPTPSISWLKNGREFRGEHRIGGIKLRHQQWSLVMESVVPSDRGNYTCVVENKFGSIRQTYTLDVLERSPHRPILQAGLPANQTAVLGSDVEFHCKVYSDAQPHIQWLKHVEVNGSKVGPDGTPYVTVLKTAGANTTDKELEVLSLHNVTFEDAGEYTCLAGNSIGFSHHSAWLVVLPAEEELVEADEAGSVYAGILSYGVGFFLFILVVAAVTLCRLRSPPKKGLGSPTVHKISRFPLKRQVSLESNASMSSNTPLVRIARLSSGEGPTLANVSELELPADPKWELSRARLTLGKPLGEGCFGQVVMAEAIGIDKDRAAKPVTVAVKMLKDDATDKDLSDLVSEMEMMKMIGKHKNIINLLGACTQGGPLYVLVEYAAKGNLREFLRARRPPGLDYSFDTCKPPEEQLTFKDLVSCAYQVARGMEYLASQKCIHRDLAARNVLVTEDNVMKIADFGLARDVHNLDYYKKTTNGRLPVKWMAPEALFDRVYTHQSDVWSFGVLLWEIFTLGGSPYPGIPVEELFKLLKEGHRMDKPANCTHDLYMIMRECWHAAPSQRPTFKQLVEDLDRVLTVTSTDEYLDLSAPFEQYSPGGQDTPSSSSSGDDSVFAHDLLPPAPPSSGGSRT
FGFR4, sequence (P22455 22-802): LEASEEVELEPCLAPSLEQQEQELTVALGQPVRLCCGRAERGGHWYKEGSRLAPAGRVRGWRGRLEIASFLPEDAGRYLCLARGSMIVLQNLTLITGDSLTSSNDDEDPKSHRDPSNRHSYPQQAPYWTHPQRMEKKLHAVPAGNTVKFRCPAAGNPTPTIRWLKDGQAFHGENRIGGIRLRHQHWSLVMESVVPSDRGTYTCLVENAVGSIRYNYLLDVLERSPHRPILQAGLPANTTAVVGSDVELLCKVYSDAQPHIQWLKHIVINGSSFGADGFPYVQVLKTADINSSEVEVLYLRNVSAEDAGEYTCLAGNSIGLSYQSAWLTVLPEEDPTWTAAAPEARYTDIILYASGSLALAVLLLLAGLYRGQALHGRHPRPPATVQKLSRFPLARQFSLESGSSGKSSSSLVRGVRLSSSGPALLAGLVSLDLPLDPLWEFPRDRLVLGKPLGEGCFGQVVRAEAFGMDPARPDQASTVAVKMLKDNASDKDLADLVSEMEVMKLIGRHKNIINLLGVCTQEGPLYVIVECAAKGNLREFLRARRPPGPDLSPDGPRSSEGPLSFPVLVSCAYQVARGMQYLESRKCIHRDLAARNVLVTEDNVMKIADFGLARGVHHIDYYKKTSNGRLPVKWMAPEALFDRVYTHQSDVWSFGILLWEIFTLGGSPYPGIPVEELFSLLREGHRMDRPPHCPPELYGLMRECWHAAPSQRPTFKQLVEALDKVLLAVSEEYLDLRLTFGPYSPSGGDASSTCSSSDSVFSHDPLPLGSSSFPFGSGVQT
FGFR1, sequence (P11362 22-822): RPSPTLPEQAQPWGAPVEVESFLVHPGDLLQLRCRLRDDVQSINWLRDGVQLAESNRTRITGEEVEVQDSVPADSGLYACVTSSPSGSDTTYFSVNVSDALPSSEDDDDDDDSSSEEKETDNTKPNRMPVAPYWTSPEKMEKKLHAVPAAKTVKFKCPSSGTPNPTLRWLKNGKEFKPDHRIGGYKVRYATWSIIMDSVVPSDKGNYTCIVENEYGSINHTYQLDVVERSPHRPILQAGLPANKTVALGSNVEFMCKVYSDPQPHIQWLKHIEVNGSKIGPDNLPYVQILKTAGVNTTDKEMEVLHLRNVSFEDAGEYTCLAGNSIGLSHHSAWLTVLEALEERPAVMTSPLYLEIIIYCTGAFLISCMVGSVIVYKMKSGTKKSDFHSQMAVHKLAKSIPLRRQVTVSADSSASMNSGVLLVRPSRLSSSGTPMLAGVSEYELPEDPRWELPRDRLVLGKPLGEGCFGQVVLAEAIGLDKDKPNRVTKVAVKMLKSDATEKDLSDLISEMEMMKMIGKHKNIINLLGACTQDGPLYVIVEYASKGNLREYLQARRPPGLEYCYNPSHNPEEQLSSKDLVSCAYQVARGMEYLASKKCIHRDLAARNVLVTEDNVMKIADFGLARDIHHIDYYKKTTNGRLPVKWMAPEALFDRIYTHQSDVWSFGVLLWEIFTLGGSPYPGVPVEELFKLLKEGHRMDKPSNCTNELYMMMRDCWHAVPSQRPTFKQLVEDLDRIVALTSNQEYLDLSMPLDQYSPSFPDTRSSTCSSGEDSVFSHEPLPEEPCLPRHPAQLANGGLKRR

Consider `[2H]C([2H])([2H])NC(=O)c1cc(C)c(F)c(-c2cnn3cc(-c4cnn([C@@H]5CCN(C)C[C@H]5F)c4)c(O[C@H]4CCOC4)nc23)c1` [Example 64, 4-Fluoro-3-(6-(1-((3R,4R)-3-fluoro-1-methylpiperidin-4-yl)-1H-pyrazol-4-yl)-5-(((S)-tetrahydrofuran-3-yl)oxy)pyrazolo[1,5-a]pyrimidin-3-yl)-5-methyl-N-(methyl-d3)benzamide], for which the IC50 in assay [1] is below 10 nM; on FGFR1, below 10 nM; on FGFR2, below 10 nM; at FGFR4, 10 to 30 nM.

Take `CNC(=O)c1cc(C)c(F)c(-c2cnn3cc(-c4cnn([C@@H]5CCN(C)C[C@H]5F)c4)c(N[C@H]4CCOC4)nc23)c1` [Example 65, 4-Fluoro-3-(6-(1-((3R,4R)-3-fluoro-1-methylpiperidin-4-yl)-1H-pyrazol-4-yl)-5-(((S)-tetrahydrofuran-3-yl)amino)pyrazolo[1,5-a]pyrimidin-3-yl)-N,5-dimethylbenzamide]: the IC50 in assay [1] was below 10 nM; against FGFR1 it was 10 to 30 nM; at FGFR2 it was below 10 nM; against FGFR4, 30 to 200 nM.

As for `[2H]C([2H])([2H])NC(=O)c1cc(-c2cnn3cc(-c4ccc(CN5C[C@H]6C[C@@H]5CO6)nc4)c(O[C@H]4CCOC4)nc23)c(F)c(C(F)F)c1` [Example 66, 3-(6-(6-(((1R,4R)-2-Oxa-5-azabicyclo[2.2.1]heptan-5-yl)methyl)pyridin-3-yl)-5-(((S)-tetrahydrofuran-3-yl)oxy)pyrazolo[1,5-a]pyrimidin-3-yl)-5-(difluoromethyl)-4-fluoro-N-(methyl-d3)benzamide], the half-maximal inhibitory concentration (IC50) in assay [1] is below 10 nM; at FGFR1 it was 30 to 200 nM; at FGFR2, below 10 nM; at FGFR4 it was 30 to 200 nM.
